Experimental data: patent US7183415B2, “Quinoline compound” (Takeda Pharmaceutical Company Limited, priority 2001, dated 2007)

melting point | SMILES
232 °C | O=C(Nc1ccc2cc(CN3CCCC3)cnc2c1)c1ccc(-c2ccc(Cl)cc2)cc1F [Example 85, 4′-chloro-3-fluoro-N-[3-(1-pyrrolidinylmethyl)-7-quinolinyl][1,1′-biphenyl]-4-carboxamide]
271 °C (dec.) | CCN(CC)Cc1cnc2cc(NC(=O)c3ccc(-c4ccc(Cl)cc4)cc3)c(OC)cc2c1 [Example 22, 4′-chloro-N-{3-[(diethylamino)methyl]-6-methoxy-7-quinolinyl}[1,1′-biphenyl]-4-carboxamide]
251 °C | CCNC(=O)CC1CCN(Cc2cnc3cc(NC(=O)c4ccc(-c5ccc(F)cc5)cc4)c(C)cc3c2)CC1 [Example 267, N-[3-({4-[2-(ethylamino)-2-oxoethyl]-1-piperidinyl}methyl)-6-methyl-7-quinolinyl]-4′-fluoro[1,1′-biphenyl]-4-carboxamide]
200 to 201 °C | Cc1c(NC(=O)c2ccc(-c3ccc(F)cc3)cc2)ccc2cc(CN3CCC(CC(=O)N(C)C)CC3)cnc12 [Example 202, N-[3-({4-[2-(dimethylamino)-2-oxoethyl]-1-piperidinyl}methyl)-8-methyl-7-quinolinyl]-4′-fluoro[1,1′-biphenyl]-4-carboxamide]
207 °C | Cc1cc2cc(CN3CCCCCC3)cnc2cc1NC(=O)c1ccc(-c2cc3ccccc3o2)cc1 [Example 240, N-[3-(1-azepanylmethyl)-6-methyl-7-quinolinyl]-4-(1-benzofuran-2-yl)benzamide]
220 to 223 °C | Cc1cc2cc(CN3CCCC3)cnc2cc1NC(=O)c1ccc(-c2ccc(F)c(F)c2)cc1 [Example 216, 3′,4′-difluoro-N-[6-methyl-3-(1-pyrrolidinylmethyl)-7-quinolinyl][1,1′-biphenyl]-4-carboxamide]
217 to 219 °C | O=C(Nc1cc2ncc(CN3CCCC3)cc2cc1F)c1ccc(-c2ccc(Cl)cc2)cc1F [Example 62, 4′-chloro-3-fluoro-N-[6-fluoro-3-(1-pyrrolidinylmethyl)-7-quinolinyl][1,1′-biphenyl]-4-carboxamide]
138 to 139 °C | Cc1c(NC(=O)c2ccc(-c3ccccc3)c(F)c2)ccc2cc(CN3CCCCC3)cnc12 (hydrate or solvate) [Example 175, 2-fluoro-N-[8-methyl-3-(1-piperidinylmethyl)-7-quinolinyl][1,1′-biphenyl]-4-carboxamide]
210 to 211 °C | Cc1c(NC(=O)c2ccc(-c3ccc(Cl)s3)cc2)ccc2cc(CN3CCCC3)cnc12 [Example 107, 4-(5-chloro-2-thienyl)-N-[8-methyl-3-(1-pyrrolidinylmethyl)-7-quinolinyl]benzamide]
241 to 243 °C | COc1ccc(C2CCN(C(=O)Nc3ccc4cc(CN5CCCC5)cnc4c3)CC2)cc1 [Example 13, 4-(4-methoxyphenyl)-N-[3-(1-pyrrolidinylmethyl)-7-quinolinyl]-1-piperidine carboxamide]
210 to 213 °C | COc1ccc(-c2ccc(C(=O)Nc3ccc4cc(CN5CCCC5)cnc4c3C)cc2)cc1 [Example 18, 4′-methoxy-N-[8-methyl-3-(1-pyrrolidinylmethyl)-7-quinolinyl][1,1′-biphenyl]-4-carboxamide]
171 to 172 °C | Cc1c(NC(=O)c2ccc(-c3ccc4c(c3)OCO4)cc2)ccc2cc(CN3CCCC3)cnc12 (hydrate or solvate) [Example 105, 4-(1,3-benzodioxol-5-yl)-N-[8-methyl-3-(1-pyrrolidinylmethyl)-7-quinolinyl]benzamide]
145 to 148 °C | CCN(CC)Cc1cnc2cc(NC(=O)c3ccc(-c4ccc(F)cc4)cc3)c(C)cc2c1 [Example 249, N-{3-[(diethylamino)methyl]-6-methyl-7-quinolinyl)-4′-fluoro[1,1′-biphenyl]-4-carboxamide]
178 to 179 °C | Cc1c(NC(=O)c2ccc(C3CCCCC3)cc2)ccc2cc(CN3CCCC3)cnc12 [Example 122, 4-cyclohexyl-N-[8-methyl-3-(1-pyrrolidinylmethyl)-7-quinolinyl]benzamide]
217 to 220 °C | CCNC(=O)CCCC1CCN(Cc2cnc3c(C)c(NC(=O)c4ccc(-c5ccc(F)cc5)cc4)ccc3c2)CC1 [Example 209, N-[3-({4-[4-(ethylamino)-4-oxobutyl]-1-piperidinyl}methyl)-8-methyl-7-quinolinyl]-4′-fluoro[1,1′-biphenyl]-4-carboxamide]
187 to 188 °C | Cc1c(NC(=O)c2ccc(-c3ccccc3)cc2F)ccc2cc(CN3CCCCC3)cnc12 (hydrate or solvate) [Example 169, 3-fluoro-N-[8-methyl-3-(1-piperidinylmethyl)-7-quinolinyl][1,1′-biphenyl]-4-carboxamide]
159 to 160 °C | Cc1c(NC(=O)c2ccc(OCc3ccc(F)cc3)cc2)ccc2cc(CN3CCCCC3)cnc12 [Example 162, 4-[(4-fluorobenzyl)oxy]-N-[8-methyl-3-(1-piperidinylmethyl)-7-quinolinyl]benzamide]

Further lines, the compound ahead of its results:

SMILES | melting point
CSc1ccc(-c2ccc(C(=O)Nc3cc4ncc(CN5CCCC5)cc4cc3C)cc2)cc1 [Example 219, N-[6-methyl-3-(1-pyrrolidinylmethyl)-7-quinolinyl]-4′-(methylthio)-[1,1′-biphenyl]-4-carboxamide] | 198 °C
Cc1c(NC(=O)c2ccc(-c3ccc(F)cc3F)cc2)ccc2cc(CN3CCCC3)cnc12 [Example 100, 2′,4′-difluoro-N-[8-methyl-3-(1-pyrrolidinylmethyl)-7-quinolinyl][1,1′-biphenyl]-4-carboxamide] | 177 to 179 °C
Cc1c(NC(=O)c2ccc(OCc3ccccc3)cc2)ccc2cc(CN3CCCCC3)cnc12 [Example 161, 4-(benzyloxy)-N-[8-methyl-3-(1-piperidinylmethyl)-7-quinolinyl]benzamide] | 186 to 187 °C
CNC(=O)CCCC1CCN(Cc2cnc3c(C)c(NC(=O)c4ccc(-c5ccc(F)cc5)cc4)ccc3c2)CC1 [Example 207, 4′-fluoro-N-[8-methyl-3-({4-[4-(methylamino)-4-oxobutyl]-1-piperidinyl}methyl)-7-quinolinyl][1,1′-biphenyl]-4-carboxamide] | 210 to 212 °C
Cc1cc2cc(CN(C)C)cnc2cc1NC(=O)c1ccc(-c2ccc(F)cc2)cc1 [Example 248, N-{3-[(dimethylamino)methyl]-6-methyl-7-quinolinyl}-4′-fluoro[1,1′-biphenyl]-4-carboxamide] | 183 to 186 °C
O=C(Nc1ccc2cc(CN3CCCC3)cnc2c1)c1ccc(-c2ccc(F)cc2)nc1 [Example 9, 6-(4-fluorophenyl)-N-[3-(1-pyrrolidinylmethyl)-7-quinolinyl]nicotinamide] | 218 to 220 °C
Cc1c(NC(=O)c2ccc(-c3ccc(Cl)s3)cc2F)ccc2cc(CN3CCCCC3)cnc12 (hydrate or solvate) [Example 172, 4-(5-chloro-2-thienyl)-2-fluoro-N-[8-methyl-3-(1-piperidinylmethyl)-7-quinolinyl]benzamide] | 205 to 206 °C
CCNC(=O)CCC1CCN(Cc2cnc3cc(NC(=O)c4ccc(-c5ccc(F)cc5)cc4)c(C)cc3c2)CC1 [Example 255, N-[3-({4-[3-(ethylamino)-3-oxopropyl]-1-piperidinyl}methyl)-6-methyl-7-quinolinyl]-4′-fluoro[1,1′-biphenyl]-4-carboxamide] | 227 to 230 °C
O=C(Nc1ccc2cc(CN3CCCC3)cnc2c1)c1ccc(-c2ccc(F)cc2)cc1 [Example 4, 4′-fluoro-N-[3-(1-pyrrolidinylmethyl)-7-quinolinyl][1,1′-biphenyl]-4-carboxamide] | 210 to 212 °C
CCN(CC)C(=O)CCCC1CCN(Cc2cnc3c(C)c(NC(=O)c4ccc(-c5ccc(F)cc5)cc4)ccc3c2)CC1 [Example 210, N-[3-({4-[4-(diethylamino)-4-oxobutyl]-1-piperidinyl}methyl)-8-methyl-7-quinolinyl]-4′-fluoro[1,1′-biphenyl]-4-carboxamide] | 145 to 146 °C
Cc1c(NC(=O)c2ccc(-c3ccc(Cl)cc3)cc2)ccc2cc(CN3CCCC3)cnc12 [Example 21, 4′-chloro-N-[8-methyl-3-(1-pyrrolidinylmethyl)-7-quinolinyl][1,1′-biphenyl]-4-carboxamide] | 227 to 229 °C
Cc1c(NC(=O)c2ccc(-c3ccc(F)cc3)cc2F)ccc2cc(CN3CCCC3)cnc12 [Example 145, 3,4′-difluoro-N-[8-methyl-3-(1-pyrrolidinylmethyl)-7-quinolinyl][1,1′-biphenyl]-4-carboxamide] | 176 to 178 °C
Cc1c(NC(=O)c2ccc(-c3ccccc3)cc2F)ccc2cc(CN3CCCC3)cnc12 [Example 149, 3-fluoro-N-[8-methyl-3-(1-pyrrolidinylmethyl)-7-quinolinyl][1,1′-biphenyl]-4-carboxamide] | 166 to 168 °C
Cc1c(NC(=O)c2ccc(-c3cc4ccccc4o3)cc2F)ccc2cc(CN3CCCC3)cnc12 [Example 142, 4-(1-benzofuran-2-yl)-2-fluoro-N-[8-methyl-3-(1-pyrrolidinylmethyl)-7-quinolinyl]benzamide] | 202 to 203 °C
CC(=O)NC1CCN(Cc2cnc3cc(NC(=O)c4ccc(-c5ccc(F)cc5)cc4)ccc3c2)C1 (centres unmarked) [Example 43, N-(3-{[3-(acetylamino)-1-pyrrolidinyl]methyl}-7-quinolinyl)-4′-fluoro[1,1′-biphenyl]-4-carboxamide] | 250 to 253 °C
CCC(=O)Oc1ccc(C(=O)Nc2ccc3cc(CN4CCCC4)cnc3c2C)cc1 [Example 330, 4-({[8-methyl-3-(1-pyrrolidinylmethyl)-7-quinolinyl]amino}carbonyl)phenyl propionate] | 146 to 147 °C
Cc1c(NC(=O)c2ccc(-c3ccc(F)cc3)cc2F)ccc2cc(CN3CCCCC3)cnc12 [Example 170, 3,4′-difluoro-N-[8-methyl-3-(1-piperidinylmethyl)-7-quinolinyl][1,1′-biphenyl]-4-carboxamide] | 186 to 187 °C
CCNC(=O)CCCC1CCN(Cc2cnc3cc(NC(=O)c4ccc(-c5ccc(F)cc5)cc4)c(C)cc3c2)CC1 [Example 261, N-[3-({4-[4-(ethylamino)-4-oxobutyl]-1-piperidinyl}methyl)-6-methyl-7-quinolinyl]-4′-fluoro[1,1′-biphenyl]-4-carboxamide] | 240 °C
